Measurements as given in US8637498B2, “Oxopiperazine-azetidine amides and oxodiazepine-azetidine amides as monoacylglycerol lipase inhibitors” (Janssen Pharmaceutica, NV, priority 2010, dated 2014).
Positions count from the first letter of the chain named. pIC50, pKd: −log10 of the molar value. Read-outs that look alike come from different tables or passages of the source.

Tests used:
[1] = biological target: T1, mutant MGL (Homo sapiens, UniProt Q99685, L169S/L176S); test: MGL ThermoFluor Assay - Mutant; assay type: binding
T1 construct: mut-MGLL 11-313 L179S L186S
T1 sequence (Q99685 1-303 L169S/L176S): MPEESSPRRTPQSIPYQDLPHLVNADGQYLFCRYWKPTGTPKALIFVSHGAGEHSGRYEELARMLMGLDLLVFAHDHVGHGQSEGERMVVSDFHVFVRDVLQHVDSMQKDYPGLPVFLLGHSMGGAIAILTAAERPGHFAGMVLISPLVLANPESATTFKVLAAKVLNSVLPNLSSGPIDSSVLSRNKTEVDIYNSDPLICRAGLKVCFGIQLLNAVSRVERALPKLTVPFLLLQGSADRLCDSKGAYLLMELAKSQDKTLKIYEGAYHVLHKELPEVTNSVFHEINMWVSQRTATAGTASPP
Protocol: The ThermoFluor (TF) assay is a 384-well plate-based binding assay that measures thermal stability of proteins^1,2. The experiments were carried out using instruments available from Johnson & Johnson Pharmaceutical Research & Development, LLC. TF dye used in all experiments was 1,8-ANS (Invitrogen: A-47). Final TF assay conditions used for MGL studies were 0.07 mg/ml of mutant MGL, 100 μM ANS, 200 mM NaCl, 0.001% Tween-20 in 50 mM PIPES (pH=7.0).
Screening compound plates contained 100% DMSO compound solutions at a single concentration. For follow-up concentration-response studies, compounds were arranged in a pre-dispensed plate (Greiner Bio-one: 781280), wherein compounds were serially diluted in 100% DMSO across 11 columns within a series. Columns 12 and 24 were used as DMSO reference and contained no compound. For both single and multiple compound concentration-repsonse experiments, the compound aliquots (46 nL) were robotically predispensed directly into 384-well black assay plates (Abgene: TF-0384/k) using the Hummingbird liquid handler. Following compound dispension, protein and dye solutions were added to achieve the final assay volume of 3 μL. The assay solutions were overlayed with 1 μL of silicone oil (Fluka, type DC 200: 85411) to prevent evaporation.
Bar-coded assay plates were robotically loaded onto a thermostatically controlled PCR-type thermal block and then heated from 40 to 90° C. degrees at a ramp-rate of 1° C./min for all experiments. Fluorescence was measured by continuous illumination with UV light (Hamamatsu LC6), supplied via fiber optics and filtered through a band-pass filter (380-400 nm; >6 OD cutoff). Fluorescence emission of the entire 384-well plate was detected by measuring light intensity using a CCD camera (Sensys, Roper Scientific) filtered to detect 500±25 nm, resulting in simultaneous and independent readings of all 384 wells. A single image with 20-sec exposure time was collected at each temperature, and the sum of the pixel intensity in a given area of the assay plate was recorded vs temperature and fit to standard equations to yield the Tm^1. • 1. Pantoliano, M. W., Petrella, E. C., Kwasnoski, J. D., Lobanov, V. S., Myslik, J., Graf, E., Carver, T., Asel, E., Springer, B. A., Lane, P., and Salemme, F. R. (2001) J Biomol Screen 6, 429-40. • 2. Matulis, D., Kranz, J. K., Salemme, F. R., and Todd, M. J. (2005) Biochemistry 44, 5258-66.
The Kd values for compounds of Formula (Ia) and (Ib) were determined from a fit of the equation to the concentration-response plot of the fractional activity as a function of Tm. For some experiments, quantitative NMR spectroscopy (qNMR) was used to measure concentration of the initial 100% DMSO compound solutions and, using the same fitting method, qKd values were determined.

[2] = biological target: T2, purified wild type MGL (wt-MGLL 6H-11-313) (Homo sapiens, UniProt Q99685); test: MGL Enzyme Activity Assay (wild type MGL, 4MU-B substrate); assay type: biochemical; settings: wild type MGL 5 nM, 4MU-B 10 μM, 37° C.; read-out: MGL wild type inh IC50
T2 construct: wt-MGLL 6H-11-313; 6H (hexahistidine) (N)
T2 sequence (Q99685 1-303): T1 sequence (Q99685 1-303 L169S/L176S) with S169L, S176L
Protocol: All rate-based assays were performed in black 384-well polypropylene PCR microplates (Abgene) in a total volume of 30 μL. Substrate 4-methylumbelliferyl butyrate (4MU-B; Sigma) and either purified mutant MGL (mut-MGLL 11-313 L179S L186S) or purified wild type MGL (wt-MGLL 6H-11-313) were diluted separately into 20 mM PIPES buffer (pH=7.0), containing 150 mM NaCl and 0.001% Tween 20. Compounds of Formula (Ia) and (Ib) were pre-dispensed (50 nL) into the assay plate using a Cartesian Hummingbird prior to adding 4MU-B (25 μL of 1.2× solution to a final concentration of 10 μM) followed by enzyme (5 μL of a 6× solution to a final concentration of 5 nM) to initiate the reaction. Final compound concentrations ranged from 17 to 0.0003 μM. The fluorescence change due to 4MU-B cleavage was monitored with excitation and emission wavelengths of 335 and 440 nm, respectively, and a bandwidth of 10 nm (Safire^2, Tecan) at 37° C. for 5 min.
The IC50 values for compounds of Formula (Ia) or (Ib) were determined using Excel from a fit of the equation to the concentration-response plot of the fractional activity as a function of inhibitor concentration.

[3] = mutant MGL, compound concentration measured by qNMR, read-out: MGL mutant ThermoFluor qKd (using qNMR conc.)
[4] = mutant MGL 0.07 mg/ml, 1,8-ANS dye, read-out: MGL mutant ThermoFluor Kd

SMILES	pKd [1, 3]	pIC50 [2]	pKd [1, 4]
O=C(c1ccc2c(ccn2-c2ccc(F)cc2)c1)N1CC(N2CCN(c3ncccn3)C(=O)C2)C1 [Cpd 4, 4-(1-{[1-(4-Fluorophenyl)-1H-indol-5-yl]carbonyl}azetidin-3-yl)-1-pyrimidin-2-ylpiperazin-2-one]	6.03	6.87	
O=C(c1ccc(-c2ccccc2)cc1)N1CC(N2CCN(c3ncccn3)C(=O)C2)C1 [Cpd 9, 4-[1-(Biphenyl-4-ylcarbonyl)azetidin-3-yl]-1-pyrimidin-2-ylpiperazin-2-one]	5.25	5.11	
O=C(c1ccc2nc(-c3ccccc3)sc2c1)N1CC(N2CCN(c3ncccn3)C(=O)C2)C1 [Cpd 10, 4-{1-[(2-Phenyl-1,3-benzothiazol-6-yl)carbonyl]azetidin-3-yl}-1-pyrimidin-2-ylpiperazin-2-one]	4.97	5.44	
O=C(c1ccc2c(ccn2-c2ccc(C(F)(F)F)cc2)c1)N1CC(N2CCN(c3ccccc3)C(=O)C2)C1 [Cpd 13, 1-Phenyl-4-[1-({1-[4-(trifluoromethyl)phenyl]-1H-indol-5-yl}carbonyl)azetidin-3-yl]piperazin-2-one]		6.04	5.87
O=C(c1sc2cc(C(F)(F)F)ccc2c1Cl)N1CC(N2CCN(c3ccccc3)C(=O)C2)C1 [Cpd 14, 4-(1-{[3-Chloro-6-(trifluoromethyl)-1-benzothiophen-2-yl]carbonyl}azetidin-3-yl)-1-phenylpiperazin-2-one]		6.65	6.31
O=C(c1ccc2c(ccn2-c2ccc(F)c(F)c2)c1)N1CC(N2CCN(c3ccccc3)C(=O)C2)C1 [Cpd 15, 4-(1-{[1-(3,4-Difluorophenyl)-1H-indol-5-yl]carbonyl}azetidin-3-yl)-1-phenylpiperazin-2-one]		6.52	5.71
O=C(c1ccc(-c2ccccc2)cc1)N1CC(N2CCN(c3nccs3)C(=O)C2)C1 [Cpd 18, 4-[1-(Biphenyl-4-ylcarbonyl)azetidin-3-yl]-1-(1,3-thiazol-2-yl)piperazin-2-one]	5.86	5.78	

These reach a higher pIC50 [2]. Values come first.

pKd [1, 3]	pIC50 [2]	pKd [1, 4]	SMILES
6.78	6.90		O=C(c1sc2cc(C(F)(F)F)ccc2c1Cl)N1CC(N2CCN(c3ncccn3)C(=O)C2)C1 [Cpd 8, 4-(1-{[3-Chloro-6-(trifluoromethyl)-1-benzothiophen-2-yl]carbonyl}azetidin-3-yl)-1-pyrimidin-2-ylpiperazin-2-one]
	> 8.30	7.19	O=C(c1sc2cc(C(F)(F)F)ccc2c1Cl)N1CC(N2CCN(c3nccs3)C(=O)C2)C1 [Cpd 11, 4-(1-{[3-Chloro-6-(trifluoromethyl)-1-benzothiophen-2-yl]carbonyl}azetidin-3-yl)-1-(1,3-thiazol-2-yl)piperazin-2-one]
	7.01	6.00	O=C(c1ccc2nc(-c3ccccc3)sc2c1)N1CC(N2CCN(c3nccs3)C(=O)C2)C1 [Cpd 12, 4-{1-[(2-Phenyl-1,3-benzothiazol-6-yl)carbonyl]azetidin-3-yl}-1-(1,3-thiazol-2-yl)piperazin-2-one]
5.86	7.17		O=C(c1ccc2nc(-c3ccccc3)oc2c1)N1CC(N2CCN(c3nccs3)C(=O)C2)C1 [Cpd 16, 4-{1-[(2-Phenyl-1,3-benzoxazol-6-yl)carbonyl]azetidin-3-yl}-1-(1,3-thiazol-2-yl)piperazin-2-one]
7.28	7.26		O=C(c1sc2cc(C(F)(F)F)ccc2c1Cl)N1CC(N2CCC(=O)N(c3ncccn3)CC2)C1 [Cpd 17, 1-(1-{[3-Chloro-6-(trifluoromethyl)-1-benzothiophen-2-yl]carbonyl}azetidin-3-yl)-4-pyrimidin-2-yl-1,4-diazepan-5-one]
9.10	> 8.30		O=C(c1sc2cc(C(F)(F)F)ccc2c1Cl)N1CC(N2CCC(=O)N(c3nccs3)CC2)C1 [Cpd 19, 1-(1-{[3-Chloro-6-(trifluoromethyl)-1-benzothiophen-2-yl]carbonyl}azetidin-3-yl)-4-(1,3-thiazol-2-yl)-1,4-diazepan-5-one]
